Like-named read-outs stand apart in the source and are kept apart here.
Key:
PPARγ [1] = system: PPARγ; set-up: method as in PMID 17335769; conditions: read-out: The reported IC50 value; cited from earlier work
PPARγ [2] = system: PPARγ; set-up: method as in PMID 11698662; conditions: read-out: The reported EC50 value; cited from earlier work
PPARγ [3] = system: PPARγ; set-up: method as in PMID 19053776; conditions: read-out: The reported EC50 value; cited from earlier work
PPARγ [4] = molecular target: T1, PPARγ (Homo sapiens, UniProt P37231); experiment: Transactivation dual luciferase assay in COS-7 cells with GAL4-PPARγ chimera; type: cell-based; conditions: for EC50: PPARγ transcriptional activity; for Transcriptional activity (in words): compared with rosiglitazone
T1 sequence (P37231 232-505 limits assumed): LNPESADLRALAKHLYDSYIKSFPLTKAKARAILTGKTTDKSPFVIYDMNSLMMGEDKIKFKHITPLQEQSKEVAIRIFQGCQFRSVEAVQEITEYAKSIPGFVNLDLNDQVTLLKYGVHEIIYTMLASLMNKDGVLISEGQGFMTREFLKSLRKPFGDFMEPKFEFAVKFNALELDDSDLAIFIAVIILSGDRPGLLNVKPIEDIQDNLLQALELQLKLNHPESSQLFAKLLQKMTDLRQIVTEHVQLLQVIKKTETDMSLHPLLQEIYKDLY
Procedure: Transactivation in COS-7 cells was measured using a dual luciferase assay according to a previously reported procedure. EC50s were calculated by GraphPad Prism 6 (GraphPad Software, San Diego, USA) (<A>LogEC = LogEC50Control <~A>LogEC = LogEC50Control + log(EC50Ratio) Y = Bottom + (Top-Bottom)/(1 + 10^((LogEC-X) × HillSlope))).
The data represent the mean ± SD of three independent experiments.
Biological experiments section
COS-7 cells (RIKEN BRC) was cultured in Dulbecco’s Modified Eagle’s medium (DMEM) (Sigma-
Aldrich) supplemented with 5% heat inactivated fetal bovine serum (FBS) (HyClone) and 1%
penicillin-streptomycin (containing 10000 U/mL penicillin and 10000 µg/mL streptomycin; Nacalai

[5] = UV-visible absorption and fluorescence spectroscopic analyses in solvents; type: physicochemical; conditions: for Q.Y.: reference quinine sulfate in 0.1 M H2SO4; for Q.Y. (Φ), range over solvents: in CH2Cl2, THF, MeOH, or H2O
Procedure: We evaluated the fluorescence properties of PPARγ ligands 2 and 6 (Figure 4) by measuring the fluorescence spectra and quantum yields (Q.Y.) in CH2Cl2, THF, MeOH, or H2O. […] The dielectric constant of each solvent was THF: 7.4, CH2Cl2: 8.9, MeOH: 32.6, and H2O: 78.5 [41, 42].
Stock solutions of model coumarin compounds PPAR ligands 1, 2, and 6 were prepared in DMSO, and stored in the dark at −20 °C. The stock solutions were diluted (2 μM) with solvents (CH2Cl2, THF, MeOH, and H2O) and then the UV-visible absorption and fluorescence signals were measured by a spectrometer. The fluorescence quantum yields of coumarin analogues were calculated using quinine sulfate (Φ = 0.577 in 0.1 M H2SO4) as a reference standard.

hPPARγ-LBD = molecular target: T2, hPPARγ-LBD (Homo sapiens, UniProt P37231); experiment: Kd determination by fluorescence intensity at 410 nm on adding hPPARγ-LBD; type: binding; conditions: probe 1 μM, Ex 367 nm, Tris–HCl buffer
T2 construct: The human PPARγ-LBD (residues 204−477) was expressed; 6×His (TEV-cleavable) (N, cleaved yes); made in house; host or cells: E. coli Rosetta (DE3)
T2 sequence (P37231 204-477 isoform P37231-2): T1 sequence (P37231 232-505 limits assumed)
Procedure: We examined whether 2 and 6 were useful for PPARγ binding assays. […] The fluorescence spectra were measured by adding hPPARγ-LBD (0.05 to 8.0 μM) in Tris–HCl buffer to 2 (1 μM) (Figure 7a). The fluorescence maxima shifted to shorter wavelength and the fluorescence intensity increased upon increasing the concentration of PPARγ-LBD.
The assay buffer was measured as the background for fluorescence spectrum. […] The specific equilibrium binding constant (Kd) was derived using GraphPad Prism6 (Y = Bmax × X^h/(Kd^h + X^h) (X: concentration of PPARγ-LBD [nM], Y: fluorescence intensity at 410 nm, h: Hill slope).
Figure 7 (a) Fluorescence spectra of 2 (1 µM) upon addition to hPPARγ-LBD (0.05–8.0 µM) in Tris–HCl buffer with Ex = 367 nm. (b) Fluorescence intensity of 2 at 410 nm depending on the concentration of hPPARγ-LBD. Data are mean ± SD (n = 3).

Structure (SMILES)	IC50 (PPARγ [1])	EC50 (PPARγ [2])	EC50 (PPARγ [4])	Transcriptional activity (in words) (PPARγ [4])	Absmax ([5]; In CH2Cl2, 2 μM)	Emmax ([5]; In CH2Cl2, 2 μM)	Δ ([5]; In CH2Cl2, 2 μM)	Q.Y. ([5]; In CH2Cl2)	Absmax ([5]; In H2O, 2 μM)	Emmax ([5]; In H2O, 2 μM)	Δ ([5]; In H2O, 2 μM)	Q.Y. ([5]; In H2O)	Absmax ([5]; In MeOH, 2 μM)	Emmax ([5]; In MeOH, 2 μM)	Δ ([5]; In MeOH, 2 μM)	Q.Y. ([5]; In MeOH)	Absmax ([5]; In THF, 2 μM)	Emmax ([5]; In THF, 2 μM)	Δ ([5]; In THF, 2 μM)	Q.Y. ([5]; In THF)	further results
CN(CCOc1ccc(CC2SC(=O)NC2=O)cc1)c1ccccn1 (stereo not drawn) [Rosiglitazone]	[…]	18 ± 4 nM	–	–	–	–	–	–	–	–	–	–	–	–	–	–	–	–	–	–	EC50 (PPARγ [3]): […]
COc1ccc2c(N(C)CCOc3ccc(CC4SC(=O)NC4=O)cc3)cc(=O)oc2c1 (stereo not drawn) [Compound 1]	–	–	180 nM	comparable to rosiglitazone	316 nm	469 nm	153 nm	0.00359	312 nm	451 nm	139 nm	0.00369	314 nm	392 nm	78 nm	0.0039	314 nm	467 nm	153 nm	0.00461	–
CCN1C(=O)SC(Cc2ccc(OCCN(C)c3cc(=O)oc4cc(N(CC)CC)ccc34)cc2)C1=O (stereo not drawn) [Compound 6, 5-(4-(2-((7-(diethylamino)-2-oxo-2H-chromen-4-yl)(methyl)amino)ethoxy)benzyl)-3-ethylthiazolidine-2,4-dione]	–	–	350 nM	partial agonistic activity	359 nm	423 nm	64 nm	0.764	369 nm	461 nm	92 nm	0.0865	358 nm	449 nm	91 nm	0.432	353 nm	416 nm	63 nm	0.172	Kd (hPPARγ-LBD): 4080 ± 712 nM; Q.Y. (Φ), range over solvents [5]: 0.0865–0.764
CCN(CC)c1ccc2c(N(C)CCOc3ccc(CC4SC(=O)NC4=O)cc3)cc(=O)oc2c1 (stereo not drawn) [Compound 2, 5-(4-(2-((7-(diethylamino)-2-oxo-2H-chromen-4-yl) (methyl)amino)ethoxy)benzyl)thiazolidine-2,4-dione]	–	–	34 nM	comparable to rosiglitazone	359 nm	423 nm	64 nm	0.541	364 nm	462 nm	98 nm	0.143	359 nm	449 nm	90 nm	0.532	354 nm	416 nm	62 nm	0.191	Kd (hPPARγ-LBD): 1560 ± 93.6 nM; Q.Y. (Φ), range over solvents [5]: 0.143–0.541
